Assay results taken from ChEMBL document CHEMBL3774313, “Natural product-based design, synthesis and biological evaluation of Albiziabioside A derivatives that selectively induce HCT116 cell death” (Eur J Med Chem, 2016).

What was measured:
[1] = system: HeLa; assay: Antiproliferative activity against human HeLa cells assessed as cell viability after 72 hrs by MTT assay; type: functional, cell-based
[2] = system: MCF7; assay: Antiproliferative activity against human MCF7 cells assessed as cell viability after 72 hrs by MTT assay; type: functional, cell-based; details: MCF7, 72 h
[3] = system: HepG2; assay: Antiproliferative activity against human HepG2 cells assessed as cell viability after 72 hrs by MTT assay; type: functional, cell-based; details: HepG2, 72 h
[4] = system: A549; assay: Antiproliferative activity against human A549 cells assessed as cell viability after 72 hrs by MTT assay; type: functional, cell-based; details: A549, 72 h
[5] = Antiproliferative activity against human HCT116 cells assessed as cell viability after 72 hrs by MTT assay; type: functional, cell-based; details: HCT-116, 72 h
[6] = Antiproliferative activity against human HL60 cells assessed as cell viability after 72 hrs by MTT assay; type: functional, cell-based; details: HL-60, 72 h
[7] = Cytotoxicity against human HBMEC cells assessed as cell viability after 72 hrs by MTT assay; type: cell-based
[8] = Cytotoxicity against human LO2 cells assessed as cell viability after 72 hrs by MTT assay; type: cell-based; details: L02, 72 h
[9] = Cytotoxicity against human CCD-841-CoN cells assessed as cell viability after 72 hrs by MTT assay; type: cell-based
[10] = system: HaCaT; assay: Cytotoxicity against human HaCaT cells assessed as cell viability after 72 hrs by MTT assay; type: cell-based
[11] = Cytotoxicity against human BEAS2B cells assessed as cell viability after 72 hrs by MTT assay; type: cell-based; details: BEAS-2B
[12] = Cell cycle arrest in human HCT116 cells assessed as accumulation at G1 phase at 2 uM after 72 hrs by Propidium iodide staining-based flow cytometric analysis (reference value: 57.02 %); type: functional; details: HCT-116
[13] = Cell cycle arrest in human HCT116 cells assessed as accumulation at G2 phase at 2 uM after 72 hrs by Propidium iodide staining-based flow cytometric analysis (reference value: 5.69 %); type: functional; details: HCT-116
[14] = Cell cycle arrest in human HCT116 cells assessed as accumulation at S phase at 2 uM after 72 hrs by Propidium iodide staining-based flow cytometric analysis (reference value: 37.29 %); type: functional; details: HCT-116
[15] = Cell cycle arrest in human HCT116 cells assessed as accumulation at G1 phase at 4 uM after 72 hrs by Propidium iodide staining-based flow cytometric analysis (reference value: 57.02 %); type: functional; details: HCT-116
[16] = Cell cycle arrest in human HCT116 cells assessed as accumulation at G2 phase at 4 uM after 72 hrs by Propidium iodide staining-based flow cytometric analysis (reference value: 5.69 %); type: functional; details: HCT-116
[17] = Cell cycle arrest in human HCT116 cells assessed as accumulation at S phase at 4 uM after 72 hrs by Propidium iodide staining-based flow cytometric analysis (reference value: 37.29 %); type: functional; details: HCT-116
[18] = Cell cycle arrest in human HCT116 cells assessed as accumulation at G1 phase at 8 uM after 72 hrs by Propidium iodide staining-based flow cytometric analysis (reference value: 57.02 %); type: functional; details: HCT-116
[19] = Cell cycle arrest in human HCT116 cells assessed as accumulation at G2 phase at 8 uM after 72 hrs by Propidium iodide staining-based flow cytometric analysis (reference value: 5.69 %); type: functional; details: HCT-116
[20] = Cell cycle arrest in human HCT116 cells assessed as accumulation at S phase at 8 uM after 72 hrs by Propidium iodide staining-based flow cytometric analysis (reference value: 37.29 %); type: functional; details: HCT-116
[21] = system: HCT-116; assay: Induction of apoptosis in human HCT116 cells assessed as viable cells at 2 uM after 72 hrs by Annexin V/Propidium iodide staining based flow cytometric analysis (reference value: 92.47 %); type: functional; details: HCT-116, 72 h, read-out: Activity
[22] = system: HCT-116; assay: Induction of apoptosis in human HCT116 cells assessed as early apoptotic cells at 2 uM after 72 hrs by Annexin V/Propidium iodide staining based flow cytometric analysis (reference value: 5.07 %); type: functional
[23] = system: HCT-116; assay: Induction of apoptosis in human HCT116 cells assessed as late apoptotic cells at 2 uM after 72 hrs by Annexin V/Propidium iodide staining based flow cytometric analysis (reference value: 1.49 %); type: functional
[24] = system: HCT-116; assay: Induction of apoptosis in human HCT116 cells assessed as necrotic cells at 2 uM after 72 hrs by Annexin V/Propidium iodide staining based flow cytometric analysis (reference value: 0.97 %); type: functional
[25] = system: HCT-116; assay: Induction of apoptosis in human HCT116 cells assessed as viable cells at 4 uM after 72 hrs by Annexin V/Propidium iodide staining based flow cytometric analysis (reference value: 92.47 %); type: functional; details: HCT-116, 72 h, read-out: Activity
[26] = system: HCT-116; assay: Induction of apoptosis in human HCT116 cells assessed as early apoptotic cells at 4 uM after 72 hrs by Annexin V/Propidium iodide staining based flow cytometric analysis (reference value: 5.07 %); type: functional
[27] = system: HCT-116; assay: Induction of apoptosis in human HCT116 cells assessed as late apoptotic cells at 4 uM after 72 hrs by Annexin V/Propidium iodide staining based flow cytometric analysis (reference value: 1.49 %); type: functional
[28] = system: HCT-116; assay: Induction of apoptosis in human HCT116 cells assessed as necrotic cells at 4 uM after 72 hrs by Annexin V/Propidium iodide staining based flow cytometric analysis (reference value: 0.97 %); type: functional
[29] = system: HCT-116; assay: Induction of apoptosis in human HCT116 cells assessed as viable cells at 8 uM after 72 hrs by Annexin V/Propidium iodide staining based flow cytometric analysis (reference value: 92.47 %); type: functional; details: HCT-116, 72 h, read-out: Activity
[30] = system: HCT-116; assay: Induction of apoptosis in human HCT116 cells assessed as early apoptotic cells at 8 uM after 72 hrs by Annexin V/Propidium iodide staining based flow cytometric analysis (reference value: 5.07 %); type: functional
[31] = system: HCT-116; assay: Induction of apoptosis in human HCT116 cells assessed as late apoptotic cells at 8 uM after 72 hrs by Annexin V/Propidium iodide staining based flow cytometric analysis (reference value: 1.49 %); type: functional
[32] = system: HCT-116; assay: Induction of apoptosis in human HCT116 cells assessed as necrotic cells at 8 uM after 72 hrs by Annexin V/Propidium iodide staining based flow cytometric analysis (reference value: 0.97 %); type: functional
[33] = system: HCT-116; assay: Induction of apoptosis in human HCT116 cells assessed as mitochondrial membrane potential at 2 uM after 72 hrs by JC-1 staining based flow cytometric analysis (reference value: 98.02 %); type: functional
[34] = system: HCT-116; assay: Induction of apoptosis in human HCT116 cells assessed as mitochondrial membrane potential at 4 uM after 72 hrs by JC-1 staining based flow cytometric analysis (reference value: 98.02 %); type: functional
[35] = system: HCT-116; assay: Induction of apoptosis in human HCT116 cells assessed as mitochondrial membrane potential at 8 uM after 72 hrs by JC-1 staining based flow cytometric analysis (reference value: 98.02 %); type: functional
[36] = system: HCT-116; assay: Induction of apoptosis in human HCT116 cells assessed as decrease in mitochondrial membrane potential after 72 hrs by JC-1 staining based flow cytometric analysis; type: functional, cell-based
[37] = Cytotoxicity against mouse J774A1 cells assessed as cell viability after 72 hrs by MTT assay; type: functional, cell-based; details: J774.A1, 72 h

In the case of `CC(C)c1ccc(/C=C/C(=O)N[C@H]2[C@H](O[C@H]3CC[C@]4(C)[C@H]5CC=C6[C@@H]7CC(C)(C)CC[C@]7(C(=O)O)CC[C@@]6(C)[C@]5(C)CC[C@H]4C3(C)C)O[C@H](CO[C@@H]3OC[C@H](O)[C@H](O)[C@H]3O)[C@@H](O)[C@@H]2O)cc1`, the IC50 [1] is reported as over 50 µM, the IC50 [2] is reported as over 50 µM and the IC50 [3] is reported as over 50 µM. For the same molecule, the IC50 [4] was over 50 µM, the IC50 [5] was 7.6 µM and the IC50 [6] was over 50 µM. The IC50 [7] was over 50 µM, the IC50 [8] was over 50 µM and the IC50 [9] was over 50 µM. For the same molecule, the IC50 [10] was over 50 µM, the IC50 [11] was over 50 µM and the Activity [12] was 53.8%. It also gave an Activity [13] of 9.86%, an Activity [14] of 36.4% and an Activity [15] of 46.5%. The Activity [16] was 11.4%, the Activity [17] was 42.1% and the Activity [18] was 40.8%. For the same molecule, the Activity [19] was 16.5%, the Activity [20] was 42.8% and the viability at 2 µM [21] was 81.6%. For the same molecule, the Activity [22] was 4.51%, the Activity [23] was 12.21% and the Activity [24] was 1.67%. It also gave a viability at 4 µM [25] of 63.3%, an Activity [26] of 5.4% and an Activity [27] of 28%. The Activity [28] was 3.34%, the viability at 8 µM [29] was 28.3% and the Activity [30] was 40.8%. The Activity [31] was 27%, the Activity [32] was 3.9% and the Activity [33] was 86.87%. The Activity [34] was 73.55%, the Activity [35] was 47.79% and the Activity [36] was “Dose-dependent effect”.
Molecule `CC(=O)N[C@H]1[C@H](O[C@H]2CC[C@]3(C)[C@H]4CC=C5[C@@H]6CC(C)(C)CC[C@]6(C(=O)O)CC[C@@]5(C)[C@]4(C)CC[C@H]3C2(C)C)O[C@H](CO)[C@@H](O[C@@H]2O[C@H](CO)[C@@H](O)[C@H](O)[C@H]2O)[C@@H]1O[C@H]1O[C@@H](CO)[C@@H](O)[C@@H](O)[C@@H]1O` has an IC50 [37] of 0.15 µM.
Work on `Cc1ccc(/C=C/C(=O)N[C@H]2[C@H](O[C@H]3CC[C@]4(C)[C@H]5CC=C6[C@@H]7CC(C)(C)CC[C@]7(C(=O)O)CC[C@@]6(C)[C@]5(C)CC[C@H]4C3(C)C)O[C@H](CO[C@@H]3OC[C@H](O)[C@H](O)[C@H]3O)[C@@H](O)[C@@H]2O)cc1` yielded an IC50 [1] of over 50 µM, an IC50 [2] of 38.1 µM and an IC50 [3] of over 50 µM. For the same molecule, the IC50 [4] was over 50 µM, the IC50 [5] was 16.3 µM and the IC50 [6] was over 50 µM.
`CC(=O)N[C@H]1[C@H](O[C@H]2CC[C@]3(C)[C@H]4CC=C5[C@@H]6CC(C)(C)CC[C@]6(C(=O)O)CC[C@@]5(C)[C@]4(C)CC[C@H]3C2(C)C)O[C@H](CO)[C@@H](O)[C@@H]1O[C@@H]1O[C@H](CO)[C@H](O)[C@H](O)[C@H]1O` [LOTOIDOSIDE E] gave an IC50 [37] of 0.018 µM.
`CCOc1ccc(/C=C/C(=O)N[C@H]2[C@H](O[C@H]3CC[C@]4(C)[C@H]5CC=C6[C@@H]7CC(C)(C)CC[C@]7(C(=O)O)CC[C@@]6(C)[C@]5(C)CC[C@H]4C3(C)C)O[C@H](CO[C@@H]3OC[C@H](O)[C@H](O)[C@H]3O)[C@@H](O)[C@@H]2O)cc1` gave an IC50 [1] of over 50 µM, an IC50 [2] of over 50 µM and an IC50 [3] of over 50 µM. The IC50 [4] was over 50 µM, the IC50 [5] was 13 µM and the IC50 [6] was over 50 µM.
In the case of `COc1cccc(/C=C/C(=O)N[C@H]2[C@H](O[C@H]3CC[C@]4(C)[C@H]5CC=C6[C@@H]7CC(C)(C)CC[C@]7(C(=O)O)CC[C@@]6(C)[C@]5(C)CC[C@H]4C3(C)C)O[C@H](CO[C@@H]3OC[C@H](O)[C@H](O)[C@H]3O)[C@@H](O)[C@@H]2O)c1OC`, the IC50 [1] is reported as over 50 µM, the IC50 [2] is reported as over 50 µM and the IC50 [3] is reported as over 50 µM. The IC50 [4] was over 50 µM, the IC50 [5] was over 50 µM and the IC50 [6] was over 50 µM.
